Assay results reported in patent US20260356990A1, “HEPARIN DODECASACCHARIDES CONTAINING TWO ANTITHROMBIN-BINDING SEQUENCES AS WELL AS PREPARATION METHODS AND APPLICATIONS THEREOF” (SHANDONG UNIVERSITY, priority 2022, published 2026).

Assays:
[1] = tested on: factor Xa; assay: anti-factor Xa (FXa) activity, chromogenic substrate assay kit; type: biochemical; details: in vitro; for IC50 for anti-FXa activity: mass concentration; for IC50: molar concentration
Experimental: The anti-factor Xa (FXa) activity of the novel heparin dodecasaccharides I-2 and I-10 prepared in the present disclosure was determined using a commercially available chromogenic substrate assay kit. […] Therefore, the novel heparin dodecasaccharides I-2 and I-10 prepared in the present disclosure are specific inhibitors of factor Xa.

[2] = tested on: factor Xa; assay: neutralization effect of protamine on the anti-factor Xa activity, chromogenic substrate assay; type: biochemical; details: in vitro, protamine at different concentrations
Experimental: Using the chromogenic substrate assay, the effect of different concentrations of protamine on the anti-Factor Xa (FXa) activity of the novel heparin dodecasaccharides I-2 and I-10 was evaluated. […] The in vitro anti-FXa activity of the novel heparin dodecasaccharide I-2 could be reversed by >80% with protamine, as shown in FIG. 4. Therefore, the heparin dodecasaccharides I-2 and I-10 prepared in the present disclosure are novel heparin molecules whose anticoagulant activity can be neutralized by protamine.

[3] = tested on: anticoagulant effect; details: background statement; cited from earlier work
[4] = tested on: factor IIa; assay: anti-factor IIa activity; type: biochemical; details: in vitro; data not shown

Row | IC50 for anti-FXa activity [1] [ng/mL] | IC50 [1] [nM] | Structure (SMILES) | reversal of the anti-FXa activity by protamine (in words) [2] | neutralization of the anticoagulant effect by protamine (in words) [3] | anti-factor IIa activity [4]
1 | 12.63 | 7.3 | CO[C@H]1O[C@H](COS(=O)(=O)O)[C@@H](O[C@@H]2O[C@@H](C(=O)O)[C@@H](O[C@H]3O[C@H](COS(=O)(=O)O)[C@@H](O[C@@H]4O[C@H](C(=O)O)[C@@H](O[C@H]5O[C@H](COS(=O)(=O)O)[C@@H](O)[C@H](O)[C@H]5NS(=O)(=O)O)[C@H](O)[C@H]4O)[C@H](OS(=O)(=O)O)[C@H]3NS(=O)(=O)O)[C@H](O)[C@H]2OS(=O)(=O)O)[C@H](O)[C@H]1NS(=O)(=O)O [fondaparinux sodium (Arixtra), reference compound] | almost completely unneutralizable | not neutralized by protamine | 
2 | 18.03 | 4.54 | CC(=O)N[C@H]1[C@@H](O[C@H]2[C@H](O)[C@@H](O)[C@H](O[C@H]3[C@H](OS(=O)(=O)O)[C@@H](NS(=O)(=O)O)[C@@H](O[C@H]4[C@H](O)[C@@H](OS(=O)(=O)O)[C@H](O[C@H]5[C@H](O)[C@@H](NS(=O)(=O)O)[C@@H](O[C@H]6[C@H](O)[C@@H](O)[C@H](Oc7ccc([N+](=O)[O-])cc7)O[C@@H]6C(=O)O)O[C@@H]5COS(=O)(=O)O)O[C@H]4C(=O)O)O[C@@H]3COS(=O)(=O)O)O[C@@H]2C(=O)O)O[C@H](COS(=O)(=O)O)[C@@H](O[C@@H]2O[C@@H](C(=O)O)[C@@H](O[C@H]3O[C@H](COS(=O)(=O)O)[C@@H](O[C@@H]4O[C@@H](C(=O)O)[C@@H](O[C@H]5O[C@H](COS(=O)(=O)O)[C@@H](O[C@@H]6O[C@H](C(=O)O)[C@@H](O[C@H]7O[C@H](COS(=O)(=O)O)[C@@H](O)[C@H](O)[C@H]7NS(=O)(=O)O)[C@H](O)[C@H]6O)[C@H](OS(=O)(=O)O)[C@H]5NS(=O)(=O)O)[C@H](O)[C@H]4OS(=O)(=O)O)[C@H](O)[C@H]3NS(=O)(=O)O)[C@H](O)[C@H]2OS(=O)(=O)O)[C@@H]1O [Compound I-10] | completely reversed |  | no significant anti-factor IIa activity
3 | 16.77 | 4.34 | CC(=O)N[C@H]1[C@@H](O[C@H]2[C@H](O)[C@@H](O)[C@H](O[C@H]3[C@H](OS(=O)(=O)O)[C@@H](NS(=O)(=O)O)[C@@H](O[C@H]4[C@H](O)[C@@H](OS(=O)(=O)O)[C@H](O[C@H]5[C@H](O)[C@@H](NS(=O)(=O)O)[C@@H](O[C@H]6[C@H](O)[C@@H](O)[C@H](Oc7ccc([N+](=O)[O-])cc7)O[C@@H]6C(=O)O)O[C@@H]5COS(=O)(=O)O)O[C@H]4C(=O)O)O[C@@H]3COS(=O)(=O)O)O[C@@H]2C(=O)O)O[C@H](COS(=O)(=O)O)[C@@H](O[C@@H]2O[C@H](C(=O)O)[C@@H](O[C@H]3O[C@H](COS(=O)(=O)O)[C@@H](O[C@@H]4O[C@@H](C(=O)O)[C@@H](O[C@H]5O[C@H](COS(=O)(=O)O)[C@@H](O[C@@H]6O[C@H](C(=O)O)[C@@H](O[C@H]7O[C@H](COS(=O)(=O)O)[C@@H](O)[C@H](O)[C@H]7NS(=O)(=O)O)[C@H](O)[C@H]6O)[C@H](OS(=O)(=O)O)[C@H]5NS(=O)(=O)O)[C@H](O)[C@H]4OS(=O)(=O)O)[C@H](O)[C@H]3NS(=O)(=O)O)[C@H](O)[C@H]2O)[C@@H]1O [Compound I-2] |  |  | no significant anti-factor IIa activity
